Laboratory results from paper PMC9229949 (Pharmaceutics, 2022).
Like-named read-outs stand apart in the source and are kept apart here.

Columns and labels:
[1] = molecular target: T1, human glutathione reductase (hGR) (Homo sapiens, UniProt P00390); test: Inhibition of enzymatic activity of recombinant human glutathione reductase; format: biochemical; conditions: recombinant enzyme, 15 min preincubation; mean of one experiment; read-out: IC50, Human GR
T1 construct: made in house
T1 sequence (P00390 44-522): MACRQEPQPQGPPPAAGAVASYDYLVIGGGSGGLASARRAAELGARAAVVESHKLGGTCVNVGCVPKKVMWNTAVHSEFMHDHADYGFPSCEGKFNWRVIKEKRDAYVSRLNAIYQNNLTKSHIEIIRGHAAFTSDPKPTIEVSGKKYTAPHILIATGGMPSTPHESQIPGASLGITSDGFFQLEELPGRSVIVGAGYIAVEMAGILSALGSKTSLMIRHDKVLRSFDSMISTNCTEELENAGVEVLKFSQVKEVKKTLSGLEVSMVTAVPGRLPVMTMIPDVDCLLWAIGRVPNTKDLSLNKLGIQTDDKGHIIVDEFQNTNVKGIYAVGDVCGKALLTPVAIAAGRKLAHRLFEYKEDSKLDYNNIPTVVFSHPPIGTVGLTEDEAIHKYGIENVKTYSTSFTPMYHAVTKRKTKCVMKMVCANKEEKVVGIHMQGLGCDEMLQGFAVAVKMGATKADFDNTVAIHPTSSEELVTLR
Procedure: (§1) The codon-optimized sequence for PfTrxR [27, 28] was synthesized and subcloned into pET-15b (Genscript) and expressed and purified as for human glutathione reductase (hGR). Recombinant Schistosoma mansoni (S. mansoni) thioredoxin glutathione reductase (SmTGR), human TrxR (hTrxR), and hGR proteins were expressed and purified as described. TrxR and TGR enzyme inhibition assays were performed in triplicate at 25 °C in 0.1 M potassium phosphate (pH 7.4), 10 mM EDTA, 100 µM NADPH and 0.01% Tween-20. SmTGR (4 nM), hTrxR (4 nM), and PfTrxR (50 nM) were preincubated with the compounds for 15 min. The reaction was started with addition of an equal volume of 5,5′-dithiobis(2-nitrobenzoic acid) (6 mM) and NADPH (100 µM). The increase in A412 during the first 3 min was recorded. […]. The reactions were performed in triplicate. The IC50s were calculated in Prism version 5.01.

[2] = molecular target: T2, PfTrxR (Plasmodium falciparum, UniProt Q25861); test: Inhibition of enzymatic activity of recombinant P. falciparum TrxR; format: biochemical
T2 construct: made in house
T2 sequence (Q25861 1-541): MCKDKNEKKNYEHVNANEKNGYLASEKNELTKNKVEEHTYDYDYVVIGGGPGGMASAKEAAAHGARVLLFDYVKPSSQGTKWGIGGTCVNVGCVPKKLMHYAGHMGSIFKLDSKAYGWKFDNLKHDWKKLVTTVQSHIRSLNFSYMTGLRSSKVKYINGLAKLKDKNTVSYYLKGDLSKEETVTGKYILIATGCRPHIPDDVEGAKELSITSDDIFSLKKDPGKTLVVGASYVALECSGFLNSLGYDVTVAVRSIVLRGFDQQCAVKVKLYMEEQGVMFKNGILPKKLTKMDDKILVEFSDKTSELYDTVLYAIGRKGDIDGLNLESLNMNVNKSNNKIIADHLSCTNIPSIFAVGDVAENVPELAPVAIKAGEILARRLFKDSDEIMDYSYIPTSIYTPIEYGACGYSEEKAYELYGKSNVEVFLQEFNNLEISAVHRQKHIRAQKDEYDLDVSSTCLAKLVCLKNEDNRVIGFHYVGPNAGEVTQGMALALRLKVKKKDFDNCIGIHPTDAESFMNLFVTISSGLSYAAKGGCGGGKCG
Procedure: as §1

[3] = tested on: β-hematin formation from Fe(II)PPIX (heme); test: β-hematin inhibition activity, reducing conditions (R-BHIA, heme); format: biochemical; conditions: 18 h incubation; median ± S.E.M. of three experiments; free bases; read-out: β-Hematin Inhibitory Activity (BHIA) R-BHIA (Heme), IC50
Procedure: (§2) A hemin chloride (10 μL of 4 mM stock in 80% DMSO) aliquot was dispensed in a U bottom 96-well microplate, and then, 10 μL of 0.1 M NaOH (O-BHIA) or 4 mM reduced glutathione in PBS at pH 7.0 (R-BHIA) was added, and plates were sealed and incubated at 37 °C for 2 h. After this, 10 μL of the drug dissolved in DMSO was added and incubated for 2 h, followed by the addition of 180 μL of sodium acetate buffer (1.0 M, pH 5.2) and 10 μL of nonionic detergent IGEPAL-CA-630 solution in methanol (10 mg/mL). Plates were sealed and incubated at 37 °C for 18 h. […] The reaction was stopped by the addition of 50 μL of a sodium dodecyl sulfate solution (5.0% v/v in 0.1 M bicarbonate buffer at pH 9.0). Plates were centrifuged at 3700 rpm for 5 min, and 100 μL of supernatant was placed in a separate plate. […] Two independent experiments were performed, and each drug concentration was tested in quadruplicate concentrations.

[4] = tested on: β-hematin formation from Fe(III)PPIX (hematin); test: β-hematin inhibition activity, oxidizing conditions (O-BHIA, hematin); format: biochemical; conditions: 18 h incubation; median ± S.E.M. of three experiments; free bases; read-out: β-Hematin Inhibitory Activity (BHIA) O-BHIA (Hematin), IC50
Procedure: as §2

[5] = tested on: P. falciparum 3D7 (CQ-susceptible) asexual blood stages; test: In vitro activity against asexual blood stages of P. falciparum, CQ-susceptible strain 3D7 (HRP2 ELISA); format: cell-based; conditions: Plasmodium falciparum, 3D7
Procedure: The plates were incubated for 72 h at 37 °C in controlled atmosphere. After frozen and thawing the plates, hemolyzed cultures were homogenized by vortexing the plates. The antiparasitic activity was determined using the HRP2 ELISA-based assay Malaria Ag Celisa kit (ref KM2159, Cellabs PTY LDT, Brookvale, Australia). […] IC50s are expressed as means of three to five experiments.

[6] = Interaction with reduced glutathione (GSH) by monochlorobimane fluorescence assay
Procedure: Ten microliters per well of a solution of 2.0 mM reduced glutathione (Sigma-Aldrich, St. Louis, MO, USA, dissolved in PBS pH 7.2) was distributed in a 96-well microplate containing 170 μL/well of DMSO/PBS (1:1; v/v). Stock solutions of compounds were diluted in DMSO, and 10 μL was added in quadruplicate in the respective wells to a final concentration of 0.015 to 0.5 mM. […] After 1 h incubation at room temperature, fluorescence was recorded (λex = 360 nm, λem = 440 nm). Blank subtraction was performed prior to monochlorobimane addition, and controls included untreated wells (no drug) and no GSH. The results were expressed as a percentage of inhibition of GSH binding to monochlorobimane in comparison to control without compound. At least two independent experiments were performed.

| SMILES | IC50 [1] | IC50 [2] | IC50 [3] | IC50 [4] | IC50 ([5]; 72 h incubation, HRP2 ELISA, mean ± S.E.M. of at least three experiments, AQ hydrochloride hydrate, PQ diphosphate, CQ diphosphate, read-out: P. falciparum, IC50 ± S.E.M., CQ-Susceptible 3D7) | IC50 ([5]; in vitro antiplasmodial activity, read-out: P. falciparum 3D7 (Cell Based Activity), IC50) | IC50 ([2]; recombinant enzyme, 15 min preincubation, mean of one experiment, read-out: IC50 for TrxRs, P. falciparum (Cys)) | interaction with GSH ([6]; 2 h incubation, 10 to 0.3 drug:GSH molar ratio) | binding to GSH at 24 h versus 2 h incubation ([6]; 24 h versus 2 h incubation) |
| --- | --- | --- | --- | --- | --- | --- | --- | --- | --- |
| CCN(CC)Cc1cc(Nc2ccnc3cc(Cl)ccc23)ccc1O [Amodiaquine (AQ), amodiaquine] | > 66700 nM | > 66700 nM | 100 ± 10 µM | 140 ± 30 µM | 18 ± 1.6 nM | 18 ± 2 nM |  |  |  |
| [Cl][Au].c1ccc(P(c2ccccc2)c2ccccc2)cc1 [[AuClPPh3]] | 1.18 nM |  |  |  |  |  | 1.9 nM | able to interact with GSH in a drug-concentration manner | remained almost unaltered |
